# Measured values published in patent US20220324835A1 (Nurix Therapeutics, Inc., priority 2018, published 2022).
# Tests used:
# Cbl-b [1] = target: T1, Cbl-b (Homo sapiens, UniProt Q13191); experiment: Cbl-b inhibition assay (Cbl-b activity assay, FRET, Biological Example 1; 100 mM NaCl, 60 nM Src kinase); type: biochemical; conditions: upper bound stated in text lists; read-out: IC50 values in the Cbl-b inhibition assay of Biological Example 1
# How it was run: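 Here, the E2 UbcH5B, irreversibly linked to Bodipy-fluorescein ubiquitin, binds Cbl-b once Src kinase phosphorylates it; Cbl-b carries an N-terminal biotinylated Avi-tag captured by streptavidin-terbium. An absent FRET signal indicates inhibition.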
# T-cell [2] = experiment: IL-2 secretion from T-cells co-stimulated with anti-CD3 and anti-CD28 antibody (Biological Example 2); type: cell-based, human; conditions: Homo sapiens, T-cell
# How it was run: (§1)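 T-cells were stimulated with anti-CD3 antibody alone or with anti-CD28 antibody, in the presence or absence of Cbl-b inhibitor. IL-2 secretion or CD25 surface staining was measured, and values expressed as fold over the uninhibited baseline […].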
# T-cell [3] = experiment: IL-2 secretion from T-cells stimulated with anti-CD3 antibody alone (Biological Example 2); type: cell-based, human; conditions: T-cell
# T-cell [4] = experiment: CD25 cell surface staining on T-cells co-stimulated with anti-CD3 and anti-CD28 antibody (Biological Example 2); type: cell-based, human; conditions: Homo sapiens, T-cell
# How it was run: as §1
# T-cell [5] = experiment: CD25 cell surface staining on T-cells stimulated with anti-CD3 antibody alone (Biological Example 2); type: cell-based, human; conditions: T-cell
# Cbl-b [6] = target: T1, Cbl-b; experiment: Cbl-b activity assay (Cbl-b inhibition assay), TR-FRET of Cbl-b interaction with UbcH5B-Ub; type: biochemical
# How it was run: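 UbcH5B (C85K) conjugated to N-terminally Bodipy-Fluorescein-labeled ubiquitin served as the fluorescent partner. After compound preincubation, Src kinase (60 nM) with 1 mM ATP and 5 mM MgCl2 (final) was added for 1.5 h, followed by a further 1 h incubation. Some values were obtained with 50 mM NaCl and 30 nM Src.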
# [7] = read-out: IL-2 secretion, Anti-CD3/Anti-CD28 stimulation, fold change over baseline
# [8] = read-out: CD25 staining, Anti-CD3/Anti-CD28 stimulation, fold change over baseline
# [9] = assay buffer with 100 mM NaCl, 60 nM Src kinase, read-out: Cbl-b activity IC50
# [10] = 0.3 μM Cbl-b inhibitor, fold change over baseline (anti-CD3/anti-CD28 stimulated T-cells without inhibitor), read-out: IL-2 secretion Anti-CD3/Anti-CD28 stimulation
# [11] = 1 μM Cbl-b inhibitor, fold change over baseline (anti-CD3/anti-CD28 stimulated T-cells without inhibitor), read-out: IL-2 secretion Anti-CD3/Anti-CD28 stimulation
# [12] = Homo sapiens, 1 μM Cbl-b inhibitor, fold change over baseline (anti-CD3/anti-CD28 stimulated T-cells without inhibitor), read-out: IL-2 secretion Anti-CD3 stimulation
# [13] = 0.3 μM Cbl-b inhibitor, fold change over baseline (anti-CD3/anti-CD28 stimulated T-cells without inhibitor), read-out: CD25 staining Anti-CD3/Anti-CD28 stimulation
# [14] = 1 μM Cbl-b inhibitor, fold change over baseline (anti-CD3/anti-CD28 stimulated T-cells without inhibitor), read-out: CD25 staining Anti-CD3/Anti-CD28 stimulation
# [15] = Homo sapiens, 1 μM Cbl-b inhibitor, fold change over baseline (anti-CD3/anti-CD28 stimulated T-cells without inhibitor), read-out: CD25 staining Anti-CD3 stimulation
# T1 sequence (Q13191 36-427): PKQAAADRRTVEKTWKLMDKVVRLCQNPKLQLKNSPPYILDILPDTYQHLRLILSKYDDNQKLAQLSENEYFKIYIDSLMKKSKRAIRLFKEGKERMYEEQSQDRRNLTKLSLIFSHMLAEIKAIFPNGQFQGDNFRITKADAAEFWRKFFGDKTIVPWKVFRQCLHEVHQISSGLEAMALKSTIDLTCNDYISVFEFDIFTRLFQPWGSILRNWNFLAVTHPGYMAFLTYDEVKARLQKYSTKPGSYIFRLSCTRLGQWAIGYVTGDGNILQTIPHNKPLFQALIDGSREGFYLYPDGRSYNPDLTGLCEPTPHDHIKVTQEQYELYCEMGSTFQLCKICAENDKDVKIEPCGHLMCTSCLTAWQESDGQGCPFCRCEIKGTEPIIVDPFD
structure (smiles),measurement,setting,value
"Cn1cnnc1CC1(c2cccc(N3Cc4c(cc(CN5[C@@H]6CC[C@H]5C[C@@H](F)C6)cc4C(F)(F)F)C3=O)c2)COC1 [Example 557, 6-(((1R,3r,5S)-3-fluoro-8-azabicyclo[3.2.1]octan-8-yl)methyl)-2-(3-(3-((4-methyl-4H-1,2,4-triazol-3-yl)methyl)oxetan-3-yl)phenyl)-4-(trifluoromethyl)isoindolin-1-one]",IC50,Cbl-b [1],≤ 100 nM
same,fold induction at 0.3 µM,T-cell [2]; [7],5 to 7.5
same,fold induction at 1 µM,T-cell [2]; [7],> 7.5
same,fold induction at 1 µM,"T-cell [3]; Homo sapiens, read-out: IL-2 secretion, Anti-CD3 stimulation, fold change over baseline",> 0.201
same,fold induction at 0.3 µM,T-cell [4]; [8],> 1.76
same,fold induction at 1 µM,T-cell [4]; [8],> 1.76
same,fold induction at 1 µM,"T-cell [5]; Homo sapiens, read-out: CD25 staining, Anti-CD3 stimulation, fold change over baseline",> 1
same,IC50,Cbl-b [6]; [9],< 0.1 µM
"Cn1cnnc1CC1(c2cccc(N3Cc4c(cc(C5CC5)nc4C4CC4)C3=O)c2)COC1 [Example 568, 4,6-Dicyclopropyl-2-(3-(3-((4-methyl-4H-1,2,4-triazol-3-yl)methyl)oxetan-3-yl)phenyl)-2,3-dihydro-1H-pyrrolo[3,4-c]pyridin-1-one]",IC50,Cbl-b [1],≤ 100 nM
same,fold induction at 0.3 µM,T-cell [2]; [10],1.01 to 2.5
same,fold induction at 1 µM,T-cell [2]; [11],1.01 to 2.5
same,fold induction at 1 µM,T-cell [3]; [12],0.101 to 0.15
same,fold induction at 0.3 µM,T-cell [4]; [13],1.01 to 1.3
same,fold induction at 1 µM,T-cell [4]; [14],1.01 to 1.3
same,fold induction at 1 µM,T-cell [5]; [15],0.801 to 1
same,IC50,Cbl-b [6]; [9],< 0.1 µM
"CN1CC2CCC1CN2c1cc2c(c(C(F)(F)F)c1)CN(c1cccc([C@@](C)(F)C(F)(F)c3nncn3C)c1)C2=O (stereo partly drawn) [Example 565, 6-(5-Methyl-2,5-diazabicyclo[2.2.2]octan-2-yl)-2-(3-((R)-1,1,2-trifluoro-1-(4-methyl-4H-1,2,4-triazol-3-yl)propan-2-yl)phenyl)-4-(trifluoromethyl)isoindolin-1-one]",IC50,Cbl-b [1],≤ 100 nM
same,fold induction at 0.3 µM,T-cell [2]; [10],1.01 to 2.5
same,fold induction at 1 µM,T-cell [2]; [11],2.51 to 5
same,fold induction at 1 µM,T-cell [3]; [12],0.101 to 0.15
same,fold induction at 0.3 µM,T-cell [4]; [13],1.31 to 1.5
same,fold induction at 1 µM,T-cell [4]; [14],1.31 to 1.5
same,fold induction at 1 µM,T-cell [5]; [15],> 1
same,IC50,Cbl-b [6]; [9],< 0.1 µM
Cn1cnnc1CC1(c2cccc(N3Cc4c(cc(C5=CCCOC5)cc4C(F)(F)F)C3=O)c2)COC1 [Example 614],IC50,Cbl-b [1],≤ 100 nM
same,fold induction at 0.3 µM,T-cell [2]; [10],2.51 to 5
same,fold induction at 1 µM,T-cell [2]; [11],2.51 to 5
same,fold induction at 1 µM,T-cell [3]; [12],0.101 to 0.15
same,fold induction at 0.3 µM,T-cell [4]; [13],1.01 to 1.3
same,fold induction at 1 µM,T-cell [4]; [14],1.01 to 1.3
same,fold induction at 1 µM,T-cell [5]; [15],0.801 to 1
same,IC50,Cbl-b [6]; [9],< 0.1 µM
"Cc1nc(C(=O)Nc2cccc([C@H](C)Sc3nncn3C)c2)ccc1Cl [Compound 39, (S)-5-Chloro-6-methyl-N-(3-(1-((4-methyl-4H-1,2,4-triazol-3-yl)thio)ethyl)phenyl)picolinamide]",IC50,Cbl-b [1],≤ 500 nM
same,fold induction at 0.3 µM,"T-cell [2]; fold change over baseline, 0.3 μM Cbl-b inhibitor, primary human total T-cells, read-out: IL-2 secretion Anti-CD3/Anti-CD28 stimulation",2.51 to 5
same,fold induction at 1 µM,"T-cell [2]; fold change over baseline, 1 μM Cbl-b inhibitor, primary human total T-cells, read-out: IL-2 secretion Anti-CD3/Anti-CD28 stimulation",5 to 7.5
same,fold induction at 4 µM,"T-cell [2]; fold change over baseline, 4 μM Cbl-b inhibitor, primary human total T-cells, read-out: IL-2 secretion Anti-CD3/Anti-CD28 stimulation",> 7.5
same,fold induction at 1 µM,"T-cell [3]; fold change over baseline, 1 μM Cbl-b inhibitor, primary human total T-cells, read-out: IL-2 secretion Anti-CD3 stimulation",< 0.05
same,fold induction at 8 µM,"T-cell [3]; fold change over baseline, 8 μM Cbl-b inhibitor, primary human total T-cells, read-out: IL-2 secretion Anti-CD3 stimulation",0.051 to 0.1
same,fold induction at 0.3 µM,"T-cell [4]; fold change over baseline, 0.3 μM Cbl-b inhibitor, primary human total T-cells, read-out: CD25 staining Anti-CD3/Anti-CD28 stimulation",< 1
same,fold induction at 1 µM,"T-cell [4]; fold change over baseline, 1 μM Cbl-b inhibitor, primary human total T-cells, read-out: CD25 staining Anti-CD3/Anti-CD28 stimulation",1.01 to 1.3
same,fold induction at 4 µM,"T-cell [4]; fold change over baseline, 4 μM Cbl-b inhibitor, primary human total T-cells, read-out: CD25 staining Anti-CD3/Anti-CD28 stimulation",1.01 to 1.3
same,fold induction at 1 µM,"T-cell [5]; fold change over baseline, 1 μM Cbl-b inhibitor, primary human total T-cells, read-out: CD25 staining Anti-CD3 stimulation",< 0.6
same,fold induction at 8 µM,"T-cell [5]; fold change over baseline, 8 μM Cbl-b inhibitor, primary human total T-cells, read-out: CD25 staining Anti-CD3 stimulation",0.801 to 1
same,IC50,"Cbl-b [6]; * assay buffer containing 50 mM NaCl instead of 100 mM NaCl and 30 nM Src kinase instead of 60 nM, read-out: Cbl-b activity IC50 (μM)*",0.301 to 1 µM
same,IC50,Cbl-b [6]; [9],0.1 to 0.3 µM
"Cn1cnnc1CC1(c2cccc(N3Cc4c(ccc(F)c4C4CC4)C3=O)c2)COC1 [Example 577, 4-Cyclopropyl-5-fluoro-2-(3-(3-((4-methyl-4H-1,2,4-triazol-3-yl)methyl)oxetan-3-yl)phenyl)isoindolin-1-one]",IC50,Cbl-b [1],≤ 300 nM
same,fold induction at 0.3 µM,T-cell [2]; [10],1.01 to 2.5
same,fold induction at 1 µM,T-cell [2]; [11],1.01 to 2.5
same,fold induction at 1 µM,T-cell [3]; [12],0.051 to 0.1
same,fold induction at 0.3 µM,T-cell [4]; [13],1.01 to 1.3
same,fold induction at 1 µM,T-cell [4]; [14],1.01 to 1.3
same,fold induction at 1 µM,T-cell [5]; [15],0.601 to 0.8
same,IC50,Cbl-b [6]; [9],0.1 to 0.3 µM
"Cc1cc(C(=O)Nc2cccc(C3(Cc4nncn4C)COC3)c2)n2nc(C(F)(F)F)cc2n1 [Example 598, 5-Methyl-N-(3-(3-((4-methyl-4H-1,2,4-triazol-3-yl)methyl)oxetan-3-yl)phenyl)-2-(trifluoromethyl)pyrazolo[1,5-a]pyrimidine-7-carboxamide]",IC50,Cbl-b [1],≤ 300 nM
same,fold induction at 0.3 µM,T-cell [2]; [10],1.01 to 2.5
same,fold induction at 1 µM,T-cell [2]; [11],1.01 to 2.5
same,fold induction at 1 µM,T-cell [3]; [12],< 0.05
same,fold induction at 0.3 µM,T-cell [4]; [13],1.01 to 1.3
same,fold induction at 1 µM,T-cell [4]; [14],1.01 to 1.3
same,fold induction at 1 µM,T-cell [5]; [15],0.601 to 0.8
same,IC50,Cbl-b [6]; [9],0.1 to 0.3 µM
